We go through 21 molecules from patent publication US9365522B2, “Pyrazole amide derivative” (AMGEN INC., priority 2015, dated 2016).

This test has as its target T1, ligand binding domain of human ROR gamma (Homo sapiens, UniProt P51449).
T1 construct: NM_001001523; expressed in transfected cells; host or cells: HEK293T
T1 sequence (P51449 247-497 isoform P51449-2): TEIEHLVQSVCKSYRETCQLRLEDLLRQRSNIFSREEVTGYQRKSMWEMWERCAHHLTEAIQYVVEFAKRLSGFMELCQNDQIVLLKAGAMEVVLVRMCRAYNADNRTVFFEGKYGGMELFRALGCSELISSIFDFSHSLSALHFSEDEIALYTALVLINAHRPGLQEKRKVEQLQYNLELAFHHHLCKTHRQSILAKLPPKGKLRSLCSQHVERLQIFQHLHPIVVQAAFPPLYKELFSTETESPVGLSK
As to the kind of experiment: ROR gamma reporter gene assay (GAL4-RORγ LBD luciferase, Dual-Glo). In kind it is cell-based. To be noted: HEK293T cells transfected with pM-ROR gamma, 8 concentrations 3.5 nM to 10.5 μM, 24 h incubation; read-out: result (pIC50, inhibition of RORγ transcriptional activity) (converted). In a few lines:
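HEK293T cells were co-transfected with GAL4 DBD fused to human RORγ LBD (aa 247-497), a 5×UAS firefly luciferase reporter and CMV-driven renilla luciferase, in medium with 10% charcoal-stripped FBS.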
For `C[C@]1(C(=O)O)CC[C@H](n2ncc(C(=O)N(CC(=O)c3c(Cl)cc(F)cc3Cl)CC3(F)CCCC3)c2C(F)(F)F)CC1` [Example 224, trans-4-(4-((2-(2,6-dichloro-4-fluorophenyl)-2-oxoethyl)-((1-fluorocyclopentyl)methyl)carbamoyl)-5-(trifluoromethyl)pyrazol-1-yl)-1-methylcyclohexane-1-carboxylic acid], the IC50 is 2690 pM.

As to `C[C@]1(C(=O)O)CC[C@H](n2ncc(C(=O)N(CC(=O)c3c(Cl)cc(Cl)cc3Cl)CC3(F)CCCC3)c2C(F)(F)F)CC1` [Example 225, trans-4-(4-((1-fluorocyclopentyl)methyl-(2-oxo-2-(2,4,6-trichlorophenyl)ethyl)carbamoyl)-5-(trifluoromethyl)pyrazol-1-yl)-1-methylcyclohexane-1-carboxylic acid], the IC50 was 2950 pM. The value for `Cc1cc(Cl)c(C(=O)CN(CC23CCC(C)(CC2)O3)C(=O)c2cnn([C@H]3CC[C@](C)(C(=O)O)CC3)c2C(F)(F)F)c(Cl)c1` [Example 226, trans-4-(4-((2-(2,6-dichloro-4-methylphenyl)-2-oxoethyl)-((1-methyl-7-oxabicyclo[2.2.1]heptan-4-yl)methyl)carbamoyl)-5-(trifluoromethyl)pyrazol-1-yl)-1-methylcyclohexane-1-carboxylic acid] was 3390 pM.

`Cc1cc(Cl)c(C(=O)CN(C(=O)c2cnn([C@H]3CC[C@](C)(C(=O)O)CC3)c2C(F)(F)F)C2CCC(C)(C)CC2)c(Cl)c1` [Example 227, trans-4-(4-((2-(2,6-dichloro-4-methylphenyl)-2-oxoethyl)-(4,4-dimethylcyclohexyl)carbamoyl)-5-(trifluoromethyl)pyrazol-1-yl)-1-methylcyclohexane-1-carboxylic acid]: the IC50 was 3980 pM.

With `O=C(CN(Cc1ccc(F)cc1)C(=O)c1cnn([C@H]2CC[C@H](C(=O)O)CC2)c1CC(F)(F)F)c1c(Cl)cncc1Cl` [Example 228, trans-4-(4-((2-(3,5-dichloropyridin-4-yl)-2-oxoethyl)-((4-fluorophenyl)methyl)carbamoyl)-5-(2,2,2-trifluoroethyl)pyrazol-1-yl)cyclohexane-1-carboxylic acid], the IC50 was 195000 pM.

Regarding `CC1(C)CCC(N(CC(=O)c2c(Cl)cncc2Cl)C(=O)c2cnn([C@H]3CC[C@](C)(C(=O)O)CC3)c2C(F)(F)F)CC1` [Example 229, trans-4-(4-((2-(3,5-dichloropyridin-4-yl)-2-oxoethyl)-(4,4-dimethylcyclohexyl)carbamoyl)-5-(trifluoromethyl)pyrazol-1-yl)-1-methylcyclohexane-1-carboxylic acid], the IC50 was 12900 pM. The figure for `CC1(C)CCC(N(CC(=O)c2c(Cl)cc(F)cc2Cl)C(=O)c2cnn(C34CCC(C(=O)O)(CC3)CC4)c2C(F)(F)F)CC1` [Example 230, 4-(4-((2-(2,6-dichloro-4-fluorophenyl)-2-oxoethyl)-(4,4-dimethylcyclohexyl)carbamoyl)-5-(trifluoromethyl)pyrazol-1-yl)bicyclo[2.2.2]octane-1-carboxylic acid] is 6610 pM; for `CC1(C)CCC(N(CC(=O)c2c(Cl)cc(Cl)cc2Cl)C(=O)c2cnn(C34CCC(C(=O)O)(CC3)CC4)c2C(F)(F)F)CC1` [Example 231, 4-(4-((4,4-dimethylcyclohexyl)-(2-oxo-2-(2,4,6-trichlorophenyl)ethyl)carbamoyl)-5-(trifluoromethyl)pyrazol-1-yl)bicyclo[2.2.2]octane-1-carboxylic acid] it is 10700 pM.

For the molecule `COc1cccc(Cl)c1C(=O)CN(C(=O)c1cnn([C@H]2CC[C@](C)(C(=O)O)CC2)c1C(F)(F)F)[C@H]1C[C@@H]2[C@H](C1)C2(C)C` [Example 232, trans-4-(4-((2-(2-chloro-6-methoxyphenyl)-2-oxoethyl)-((1R,3r,5S)-6,6-dimethyl-3-bicyclo(3.1.0)hexanyl)carbamoyl)-5-(trifluoromethyl)pyrazol-1-yl)-1-methylcyclohexane-1-carboxylic acid], the IC50 is 17000 pM. Regarding `CC(C)(C)CN(CC(=O)c1c(Cl)cncc1Cl)C(=O)c1cnn(C23CCC(C(=O)O)(CC2)CC3)c1C(F)(F)F` [Example 233, 4-(4-((2-(3,5-dichloropyridin-4-yl)-2-oxoethyl)-(2,2-dimethylpropyl)carbamoyl)-5-(trifluoromethyl)pyrazol-1-yl)bicyclo[2.2.2]octane-1-carboxylic acid], the IC50 was 15800 pM. The figure for `C[C@]1(C(=O)O)CC[C@H](n2ncc(C(=O)N(CC(=O)c3c(Cl)cc(Cl)cc3Cl)CC3CC4(CC4)C3)c2C(F)(F)F)CC1` [Example 234, trans-4-(4-((2-oxo-2-(2,4,6-trichlorophenyl)ethyl)-(spiro[2.3]hexan-5-ylmethyl)carbamoyl)-5-(trifluoromethyl)pyrazol-1-yl)-1-methylcyclohexane-1-carboxylic acid] is 10000 pM. Take `C[C@]1(C(=O)O)CC[C@H](n2ncc(C(=O)N(CC(=O)c3c(Cl)cccc3C(F)(F)F)CC3CC4(CC4)C3)c2C(F)(F)F)CC1` [Example 235, trans-4-(4-((2-(2-chloro-6-(trifluoromethyl)phenyl)-2-oxoethyl)-(spiro[2.3]hexan-5-ylmethyl)carbamoyl)-5-(trifluoromethyl)pyrazol-1-yl)-1-methylcyclohexane-1-carboxylic acid]: the IC50 was 13200 pM. `Cc1cc(Cl)c(C(=O)CN(C(=O)c2cnn(C34CCC(C(=O)O)(CC3)CC4)c2C(F)(F)F)C2CCC(C)(C)CC2)c(Cl)c1` [Example 236, 4-(4-((2-(2,6-dichloro-4-methylphenyl)-2-oxoethyl)-(4,4-dimethylcyclohexyl)carbamoyl)-5-(trifluoromethyl)pyrazol-1-yl)bicyclo[2.2.2]octane-1-carboxylic acid]: the IC50 is 10500 pM. The figure for `Cc1cc(Cl)c(C(=O)CN(CC2CC(C)(C)C2)C(=O)c2cnn(C34CCC(C(=O)O)(CC3)CC4)c2C(F)(F)F)c(Cl)c1` [Example 237, 4-(4-((2-(2,6-dichloro-4-methylphenyl)-2-oxoethyl)-((3,3-dimethylcyclobutyl)methyl)carbamoyl)-5-(trifluoromethyl)pyrazol-1-yl)bicyclo[2.2.2]octane-1-carboxylic acid] is less than 3470 pM.

Turning to `Cc1cc(Cl)c(C(=O)CN(CC2CC(C)(C)C2)C(=O)c2cnn([C@H]3CC[C@](C)(C(=O)O)CC3)c2C(F)(F)F)c(Cl)c1` [Example 238, trans-4-(4-((2-(2,6-dichloro-4-methylphenyl)-2-oxoethyl)-((3,3-dimethylcyclobutyl)methyl)carbamoyl)-5-(trifluoromethyl)pyrazol-1-yl)-1-methylcyclohexane-1-carboxylic acid], the IC50 was 4370 pM. The figure for `CC1(C)CCC(CN(CC(=O)c2c(Cl)cc(Cl)cc2Cl)C(=O)c2cnn([C@H]3CC[C@](C)(C(=O)O)CC3)c2C(F)(F)F)CC1` [Example 239, trans-4-(4-((4,4-dimethylcyclohexyl)methyl-(2-oxo-2-(2,4,6-trichlorophenyl)ethyl)carbamoyl)-5-(trifluoromethyl)pyrazol-1-yl)-1-methylcyclohexane-1-carboxylic acid] is less than 3470 pM; for `CC1(C)[C@@H]2C[C@H](N(CC(=O)c3c(Cl)cc(F)cc3Cl)C(=O)c3cnn(C45CCC(C(=O)O)(CC4)CC5)c3C(F)(F)F)C[C@@H]21` [Example 240, 4-(4-((2-(2,6-dichloro-4-fluorophenyl)-2-oxoethyl)-((1R,3r,5S)-6,6-dimethyl-3-bicyclo[3.1.0]hexanyl)carbamoyl)-5-(trifluoromethyl)pyrazol-1-yl)bicyclo(2.2.2)octane-1-carboxylic acid] it is 5500 pM.

For `CC1(C)[C@@H]2C[C@H](N(CC(=O)c3c(Cl)cc(Cl)cc3Cl)C(=O)c3cnn(C45CCC(C(=O)O)(CC4)CC5)c3C(F)(F)F)C[C@@H]21` [Example 241, 4-(4-(((1R,3r,5S)-6,6-dimethyl-3-bicyclo[3.1.0]hexanyl)-(2-oxo-2-(2,4,6-trichlorophenyl)ethyl)carbamoyl)-5-(trifluoromethyl)pyrazol-1-yl)bicyclo(2.2.2)octane-1-carboxylic acid], the IC50 is 5130 pM. Take `CC1(C)CCC(N(CC(=O)c2c(Cl)cccc2C(F)(F)F)C(=O)c2cnn(C34CCC(C(=O)O)(CC3)CC4)c2C(F)(F)F)CC1` [Example 242, 4-(4-((2-(2-chloro-6-(trifluoromethyl)phenyl)-2-oxoethyl)-(4,4-dimethylcyclohexyl)carbamoyl)-5-(trifluoromethyl)pyrazol-1-yl)bicyclo[2.2.2]octane-1-carboxylic acid]: the IC50 is 31600 pM.

As to `COc1cccc(Cl)c1C(=O)CN(C(=O)c1cnn(C23CCC(C(=O)O)(CC2)CC3)c1C(F)(F)F)C1CCC(C)(C)CC1` [Example 243, 4-(4-((2-(2-chloro-6-methoxyphenyl)-2-oxoethyl)-(4,4-dimethylcyclohexyl)carbamoyl)-5-(trifluoromethyl)pyrazol-1-yl)bicyclo[2.2.2]octane-1-carboxylic acid], the IC50 is 55000 pM. The value for `CC12CCC(CN(CC(=O)c3c(Cl)cc(F)cc3Cl)C(=O)c3cnn([C@H]4CC[C@](C)(C(=O)O)CC4)c3C(F)(F)F)(CC1)O2` [Example 244, trans-4-(4-((2-(2,6-dichloro-4-fluorophenyl)-2-oxoethyl)-((1-methyl-7-oxabicyclo[2.2.1]heptan-4-yl)methyl)carbamoyl)-5-(trifluoromethyl)pyrazol-1-yl)-1-methylcyclohexane-1-carboxylic acid] was 6920 pM.
